From ChEMBL document CHEMBL1201862, “PubChem BioAssay data set” (2004)
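Cells were grown in 96-well plates and exposed to each compound for 48 hours at five concentrations; endpoints were interpolated linearly between bracketing concentrations, or set to the highest concentration if not reached. GI50: concentration for 50% inhibition of growth.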 Active and inactive are the calls of the source. Rule as the data show it: active = GI50 up to about 1.1 µM and inactive = higher.

Experiments:
Assay in all cases: inhibition of tumour cell growth, NCI panel, 48 h
[1] = test system: COLO 205
[2] = test system: UO-31
[3] = test system: DU-145
[4] = test system: RPMI-8226
[5] = test system: T47D
[6] = test system: LOX IMVI
[7] = test system: Malme-3M
[8] = test system: NCI-H522
[9] = test system: 786-0
[10] = test system: MCF7
[11] = test system: A549
[12] = test system: U-251
[13] = test system: MDA-MB-435
[14] = test system: OVCAR-8
[15] = test system: SK-MEL-28
[16] = test system: HOP-62
[17] = test system: SR
[18] = test system: NCI-H23
[19] = test system: OVCAR-4
[20] = test system: MDA-N

`O=C1c2cc(Br)ccc2-c2ccc3c4ccc5c6c(ccc(c7ccc1c2c73)c64)C(=O)c1cc(Br)ccc1-5` was tested, and the GI50 [1] was > 100 µM (inactive), the GI50 [2] was > 100 µM (inactive) and the GI50 [3] was > 100 µM (inactive). The GI50 [4] was > 100 µM (inactive), the GI50 [5] was > 100 µM (inactive) and the GI50 [6] was > 100 µM (inactive). The GI50 [7] was > 100 µM (inactive), the GI50 [8] was > 100 µM (inactive) and the GI50 [9] was > 100 µM (inactive). The GI50 [10] was > 100 µM (inactive), the GI50 [11] was > 100 µM (inactive) and the GI50 [12] was > 100 µM (inactive). The GI50 [13] was > 100 µM (inactive), the GI50 [14] was > 100 µM (inactive) and the GI50 [15] was > 100 µM (inactive). The GI50 [16] was > 100 µM (inactive), the GI50 [17] was 2.28 µM (inactive) and the GI50 [18] was > 100 µM (inactive).
For `CCSc1nc(N2CCCC2)s[s+]1.[O-][Cl+3]([O-])([O-])[O-]`, the GI50 [1] was 2.23 µM (inactive), the GI50 [2] was 42.1 µM (inactive) and the GI50 [3] was > 100 µM (inactive). The GI50 [4] was 0.318 µM (active), the GI50 [6] was 19.1 µM (inactive) and the GI50 [19] was 50.8 µM (inactive). For the same compound, the GI50 [7] was 53.3 µM (inactive), the GI50 [8] was 0.346 µM (active) and the GI50 [9] was 58.1 µM (inactive). For the same compound, the GI50 [10] was 0.167 µM (active), the GI50 [11] was 18.9 µM (inactive) and the GI50 [12] was 56.4 µM (inactive). The GI50 [13] was 13.6 µM (inactive), the GI50 [14] was 39.3 µM (inactive) and the GI50 [15] was 36.5 µM (inactive). For the same compound, the GI50 [16] was 56.5 µM (inactive), the GI50 [20] was 16.3 µM (inactive) and the GI50 [17] was 1.04 µM (active). For the same compound, the GI50 [18] was 46.8 µM (inactive).
For `COc1ccc(O[C@H](COCc2ccccc2)C[C@@H]2COC(C)(C)O2)cc1`, the GI50 [1] was > 100 µM (inactive), the GI50 [2] was > 100 µM (inactive) and the GI50 [3] was > 100 µM (inactive). The GI50 [4] was > 100 µM (inactive), the GI50 [6] was > 100 µM (inactive) and the GI50 [19] was > 100 µM (inactive). The GI50 [7] was > 100 µM (inactive), the GI50 [8] was > 100 µM (inactive) and the GI50 [9] was > 100 µM (inactive). The GI50 [10] was > 100 µM (inactive), the GI50 [11] was > 100 µM (inactive) and the GI50 [12] was > 100 µM (inactive). The GI50 [13] was > 100 µM (inactive), the GI50 [14] was > 100 µM (inactive) and the GI50 [15] was > 100 µM (inactive). The GI50 [16] was > 100 µM (inactive), the GI50 [20] was > 100 µM (inactive) and the GI50 [17] was > 100 µM (inactive). The GI50 [18] was > 100 µM (inactive).
For `O=c1[nH]c2ccccc2c(=O)n1/N=C/c1ccc(O)cc1`, the GI50 [1] was > 100 µM (inactive), the GI50 [2] was > 100 µM (inactive) and the GI50 [3] was > 100 µM (inactive). The GI50 [4] was > 100 µM (inactive), the GI50 [5] was > 100 µM (inactive) and the GI50 [6] was 60.4 µM (inactive). The GI50 [9] was 30.8 µM (inactive), the GI50 [10] was > 100 µM (inactive) and the GI50 [11] was > 100 µM (inactive). The GI50 [12] was 79.4 µM (inactive), the GI50 [13] was > 100 µM (inactive) and the GI50 [14] was 48.2 µM (inactive). The GI50 [15] was > 100 µM (inactive), the GI50 [16] was 20.9 µM (inactive) and the GI50 [17] was > 100 µM (inactive). The GI50 [18] was > 100 µM (inactive).
In the case of `O=C1N[C@@H]2O[C@H](CNC(=O)c3cc(Br)c[nH]3)C[C@]2(O)N1.O=C1N[C@H]2O[C@H](CNC(=O)c3cc(Br)c[nH]3)C[C@@]2(O)N1`, the GI50 [1] is reported as > 100 µM (inactive), the GI50 [2] is reported as > 100 µM (inactive) and the GI50 [3] is reported as > 100 µM (inactive). For the same compound, the GI50 [4] was > 100 µM (inactive), the GI50 [5] was > 100 µM (inactive) and the GI50 [19] was > 100 µM (inactive). For the same compound, the GI50 [7] was > 100 µM (inactive), the GI50 [8] was > 100 µM (inactive) and the GI50 [9] was > 100 µM (inactive). The GI50 [10] was > 100 µM (inactive), the GI50 [11] was > 100 µM (inactive) and the GI50 [12] was > 100 µM (inactive). For the same compound, the GI50 [13] was > 100 µM (inactive), the GI50 [14] was > 100 µM (inactive) and the GI50 [15] was > 100 µM (inactive). The GI50 [16] was > 100 µM (inactive), the GI50 [17] was 0.379 µM (active) and the GI50 [18] was > 100 µM (inactive).
In the case of `COc1cc2cc(C(=O)N3CC(CCl)c4ccc([N+](=O)[O-])cc43)[nH]c2c(OC)c1OC` (stereo not drawn), the GI50 [1] is reported as > 100 µM (inactive), the GI50 [2] is reported as > 100 µM (inactive) and the GI50 [3] is reported as > 100 µM (inactive). The GI50 [4] was > 100 µM (inactive), the GI50 [5] was > 100 µM (inactive) and the GI50 [6] was > 100 µM (inactive). For the same compound, the GI50 [19] was 29.2 µM (inactive), the GI50 [7] was > 100 µM (inactive) and the GI50 [8] was > 100 µM (inactive). For the same compound, the GI50 [9] was > 100 µM (inactive), the GI50 [10] was > 100 µM (inactive) and the GI50 [11] was > 100 µM (inactive). For the same compound, the GI50 [12] was > 100 µM (inactive), the GI50 [13] was > 100 µM (inactive) and the GI50 [14] was > 100 µM (inactive). The GI50 [15] was > 100 µM (inactive), the GI50 [16] was > 100 µM (inactive) and the GI50 [18] was > 100 µM (inactive).
